In publication PMC10853753, “Structure Prediction and Genome Mining‐Aided Discovery of the Bacterial C‐Terminal Tryptophan Prenyltransferase PalQ” (Advanced Science, 2023):

Target: T1, PalQ (Paenibacillus alvei, UniProt A0ABT4H1V4)
T1 construct: gene M5X12_20665; homodimer by size exclusion chromatography
T1 sequence (A0ABT4H1V4 1-312): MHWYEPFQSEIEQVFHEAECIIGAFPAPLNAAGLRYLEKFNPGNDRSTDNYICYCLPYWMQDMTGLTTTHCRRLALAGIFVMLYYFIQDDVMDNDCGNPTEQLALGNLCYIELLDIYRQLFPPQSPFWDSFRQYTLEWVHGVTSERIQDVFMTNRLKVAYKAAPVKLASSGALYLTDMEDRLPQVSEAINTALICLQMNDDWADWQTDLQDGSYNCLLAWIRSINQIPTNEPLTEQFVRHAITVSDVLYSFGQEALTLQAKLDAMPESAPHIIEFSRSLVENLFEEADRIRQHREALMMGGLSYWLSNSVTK
Assay: prenylation kinetics, Michaelis-Menten curve
Format: biochemical
Conditions: acceptor PalX; curve without saturation, poor water solubility

SMILES | prenylation kinetics, Michaelis-Menten curve
CC(C)=CCC/C(C)=C/CC/C(C)=C/COP(=O)(O)OP(=O)(O)O [FPP] | We then assessed the kinetics of PalQ for DMAPP, GPP, and FPP.
CC(C)=CCC/C(C)=C/COP(=O)(O)OP(=O)(O)O [GPP] | We then assessed the kinetics of PalQ for DMAPP, GPP, and FPP.
